This assay concerns the target T1, human LXRβ (Homo sapiens, UniProt P55055).
T1 construct: expressed in transfected cells; host or cells: HEK293 cells (ATCC CRL-1573), transient transfection with pFA-hLXRβ/GAL4 and pUAS
T1 sequence (P55055 222-460 limits assumed): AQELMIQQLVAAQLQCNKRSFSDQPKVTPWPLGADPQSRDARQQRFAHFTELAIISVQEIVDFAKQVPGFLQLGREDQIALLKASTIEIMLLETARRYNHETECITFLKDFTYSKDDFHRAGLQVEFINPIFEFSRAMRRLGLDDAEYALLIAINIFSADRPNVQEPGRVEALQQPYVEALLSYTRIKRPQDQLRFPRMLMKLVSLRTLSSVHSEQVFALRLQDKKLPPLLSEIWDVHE
Put plainly: Assay for Transcriptional Activity of LXRβ (GAL4-hLXRβ LBD luciferase reporter, transient transfection). The class given is cell-based. Conditions: HEK293 cells transfected with pFA-hLXRβ/GAL4 and pUAS, 24 hours; for Emax: fold value in comparison with the control (DMSO-treated group); for EC50: increase of transcriptional activity of LXRβ, average of three independent tests. An excerpt:
The ligand-binding domain (LBD) cDNA of human LXRβ was inserted into an expression vector (pFA, Stratagene, USA) site adjacent to the yeast GAL4 transcription factor DNA binding domain to prepare an expression construct (pFA-hLXRβ/GAL4) (Willey et al., Genes & Development 9 1033-1045 (1995). The GAL4-responsive luciferase reporter plasmid, i.e., pUAS (Stratagene, USA), contained five copies of the GAL4 response element placed adjacent to the promoter and the luciferase reporter gene. The pFA-hLXRβ/GAL4 and pUAS were introduced into mammalian cells through transient transfection, followed by measuring the transcriptional activity of LXRβ.
HEK293 cells (human kidney cells, sATCC, CRL-1573) were incubated at a T-75 flask containing a DMEM supplemented with 10% fetal bovine serum (FBS) in a 37° C., until they reach about 70˜80% confluency. The culture media containing the cells was added to each well of a 96-well plate in a density of 5×10^4 cells per well. The pFA-hLXRβ/GAL4 and pUAS was transfected to the cells using a cationic-lipid transfection reagent (Lipofectamine™, Invitrogen), through culturing at 37° C. for 3 hours for transient transfection according to the manufacturer's instruction. The test compounds were dissolved in dimethyl sulfoxide (DMSO) in the concentrations of 50, 30, 10, 3, 1, 0.3, 0.1, 0.03, and 0.01 μM and then cells were treated with the prepared compound-containing solution (100 μl). The cells were incubated at 37° C. for 24 hours. After removal of the medium from each well, the lysis buffer (25 mM Tricine pH7.8, 2 mM DTT, 2 mM EGTA, 10% glycerol, 1% Triton X-100) was added with the amount of 20 μl per each well, and the plate was stirred at room temperature for 15 minutes. The luciferase reagent (prepared by adding 10 ml of the luciferase buffer (Promega) to 1 vial of the luciferase substrate (Promega)) was added to each well with the amount of 100 μl per well, followed by assaying with a luminometer according to the manufacturer's instruction.
The dose-response curve for calculating the EC50 values of the test compounds on the increase of transcriptional activity of LXRβ was prepared using the known LXR agonist (i.e., N-(2,2,2-trifluoro-ethyl)-N-[4-(2,2,2-trifluoro-1-hydroxy-1-trifluoromethyl-ethyl)-phenyl]-benzenesulfonamide) as a positive control and the vehicle (DMSO) as a negative control. The dose-response curve was produced from the 9-point curve having different concentrations at a 1/2 log unit. The EC50 value of a test compound, which is defined as a concentration for initiating the reaction corresponding to the half value between the Top value (i.e., the maximum value) and the Bottom value (baseline), was calculated according to the following equation. Y=Bottom+(Top-Bottom)/(1+10^((log EC50-X)*Hill Slope)).
In the above equation, Y is the observed value; X is the log concentration; Hill Slope is the slope of the curve; and Top and Bottom are the maximum value of test compound and the baseline value, respectively.
The following tables 1 and 2 show the EC50 values of the test compounds measured as in the above. In the tables 1 and 2, each EC50 value represents an average value obtained from three independent tests.
For orientation: A reporter such as luciferase makes a cellular process visible.

Consider 20 compounds from patent publication US9376420B2 (YUHAN CORPORATION, priority 2012, dated 2016).

As a reminder, the EC50 is the concentration giving half of the maximal effect. Low values mean an effect from little substance, high ones a need for much substance.

Compound `CS(=O)(=O)c1ccc(-c2cccc(C3CC(C(F)(F)C(F)(F)F)=NN3c3ccc(F)cc3F)c2)cc1C#N` (stereo not shown) [Example 70, 5-[3′-cyano-4′-(methanesulfonyl)-biphenyl-3-yl]-1-(2,4-difluoro-phenyl)-3-pentafluoroethyl-4,5-dihydro-1H-pyrazole] had an Emax of 62 fold and an EC50 of 0.466 µM.
Take `Cc1ncccc1-c1cccc(C2CC(C(F)(F)C(F)(F)F)=NN2c2ccc(F)cc2F)c1` (stereo not shown) [Example 71, 1-(2,4-difluoro-phenyl)-5-(3-(2-methyl-pyridin-3-yl)-phenyl)-3-pentafluoroethyl-4,5-dihydro-1H-pyrazole]: the Emax was 20 fold and the EC50 is 1.23 µM.
In the case of `Fc1ccc(N2N=C(C(F)(F)C(F)(F)F)CC2c2cccc(-c3ccc(C(F)(F)F)nc3)c2)c(F)c1` (stereo not shown) [Example 72, 1-(2,4-difluoro-phenyl)-3-pentafluoroethyl-5-(3-(2-trifluoromethyl-pyridin-5-yl)-phenyl)-4,5-dihydro-1H-pyrazole], the Emax came to 9 fold and the EC50 was 15.2 µM.
As for `COc1ncc(-c2cccc(C3CC(C(F)(F)C(F)(F)F)=NN3c3ccc(F)cc3F)c2)cc1C=O` (stereo not shown) [Example 73, 1-(2,4-difluoro-phenyl)-5-(3-(3-formyl-2-methoxy-pyridin-5-yl)-phenyl)-3-pentafluoroethyl-4,5-dihydro-1H-pyrazole], the Emax worked out at 13 fold and the EC50 amounted to 1.07 µM.
The corresponding values for `Fc1cncc(-c2cccc(C3CC(C(F)(F)C(F)(F)F)=NN3c3ccc(F)cc3F)c2)c1` (stereo not shown) [Example 74, 1-(2,4-difluoro-phenyl)-5-(3-(5-fluoro-pyridin-3-yl)-phenyl)-3-pentafluoroethyl-4,5-dihydro-1H-pyrazole] are 29 fold and 2.96 µM.
The corresponding values for `COc1ncccc1-c1cccc(C2CC(C(F)(F)C(F)(F)F)=NN2c2ccc(F)cc2F)c1` (stereo not shown) [Example 75, 1-(2,4-difluoro-phenyl)-5-(3-(2-methoxy-pyridin-3-yl)-phenyl)-3-pentafluoroethyl-4,5-dihydro-1H-pyrazole] are 63 fold and 1.12 µM.
The like results for `CS(=O)(=O)c1cc(-c2cccc(C3CC(C(F)(F)C(F)(F)F)=NN3c3ccc(F)cc3F)c2)cc(F)c1CO` (stereo not shown) [Example 76, 1-(2,4-difluoro-phenyl)-5-[3′-fluoro-4′-(hydroxymethyl)-5′-(methylsulfonyl)-biphenyl-3-yl]-3-pentafluoroethyl-4,5-dihydro-1H-pyrazole] were, in that order, 84 fold and 0.189 µM.
Take `CSc1ccc(-c2cccc(C3CC(C(F)(F)C(F)(F)F)=NN3c3ccc(F)cc3F)c2)cn1` (stereo not shown) [Example 77, 1-(2,4-difluoro-phenyl)-5-[3-(2-methylsulfanyl-pyridin-5-yl)-phenyl]-3-pentafluoroethyl-4,5-dihydro-1H-pyrazole]: the Emax is 57 fold and the midpoint of the response, the EC50, lay at 7.18 µM.
The corresponding values for `N#Cc1ccc(-c2cccc(C3CC(C(F)(F)C(F)(F)F)=NN3c3ccc(F)cc3F)c2)cn1` (stereo not shown) [Example 78, 5-[3-(2-cyano-pyridin-5-yl)-phenyl]-1-(2,4-difluoro-phenyl)-3-pentafluoroethyl-4,5-dihydro-1H-pyrazole] are 25 fold and 2.5 µM.
The like results for `O=Cc1ccc(-c2cccc(C3CC(C(F)(F)C(F)(F)F)=NN3c3ccc(F)cc3F)c2)nc1` (stereo not shown) [Example 79, 1-(2,4-difluoro-phenyl)-5-[3-(5-formyl-pyridin-2-yl)-phenyl]-3-pentafluoroethyl-4,5-dihydro-1H-pyrazole] were, in that order, 46 fold and 0.747 µM.
`CS(=O)(=O)c1ccc(-c2cccc(C3CC(C(F)(F)C(F)(F)F)=NN3c3ccc(F)cc3F)c2)nc1` (stereo not shown) [Example 81, 1-(2,4-difluoro-phenyl)-5-[3-(5-methanesulfonyl-pyridin-2-yl)-phenyl]-3-pentafluoroethyl-4,5-dihydro-1H-pyrazole] gave an Emax of 78 fold and an EC50 of 1.4 µM.
The corresponding values for `CN(CCCS(=O)(=O)c1ccc(-c2cccc(C3CC(C(F)(F)C(F)(F)F)=NN3c3ccc(F)cc3F)c2)cc1)C(=O)OC(C)(C)C` (stereo not shown) [Example 86, 5-{4′-[3-(N-BOC-N-methyl-amino)-propane-1-sulfonyl]-biphenyl-3-yl}-1-(2,4-difluoro-phenyl)-3-pentafluoroethyl-4,5-dihydro-1H-pyrazole] are 45 fold and 0.958 µM.
On to `CN(C)S(=O)(=O)c1cccc(-c2cccc(C3CC(C(F)(F)C(F)(F)F)=NN3c3ccc(F)cc3F)c2)c1` (stereo not shown) [Example 87, 1-(2,4-difluoro-phenyl)-5-(3′-dimethylsulfamoyl-biphenyl-3-yl)-3-pentafluoroethyl-4,5-dihydro-1H-pyrazole], for which the Emax is on record as 46 fold and the concentration for a half-maximal effect (EC50) is 0.091 µM.
The corresponding values for `CN(CCO)S(=O)(=O)c1ccc(-c2cccc(C3CC(C(F)(F)C(F)(F)F)=NN3c3ccc(F)cc3F)c2)cc1` (stereo not shown) [Example 88, 1-(2,4-difluoro-phenyl)-5-{4′-[(2-hydroxy-ethyl)-methyl-sulfamoyl]-biphenyl-3-yl}-3-pentafluoroethyl-4,5-dihydro-1H-pyrazole] are 72 fold and 0.819 µM.
The like results for `CNCCCS(=O)(=O)c1cccc(-c2cccc(C3CC(C(F)(F)C(F)(F)F)=NN3c3ccc(F)cc3F)c2)c1` (stereo not shown) [Example 89, 1-(2,4-difluoro-phenyl)-5-{3′-[3-(N-methyl-amino)-propane-1-sulfonyl]-biphenyl-3-yl}-3-pentafluoroethyl-4,5-dihydro-1H-pyrazole] were, in that order, 106 fold and 0.382 µM.
Turning to `COc1ncc(-c2cccc(C3CC(C(F)(F)C(F)(F)F)=NN3c3ccc(F)cc3F)c2)cc1CO` (stereo not shown) [Example 90, 1-(2,4-difluoro-phenyl)-5-[3-(5-hydroxymethyl-6-methoxy-pyridin-3-yl)-phenyl]-3-pentafluoroethyl-4,5-dihydro-1H-pyrazole], the Emax came to 33 fold and it took 2.65 µM to reach a half-maximal effect (EC50).
In turn, `OCc1ccc(-c2cccc(C3CC(C(F)(F)C(F)(F)F)=NN3c3ccc(F)cc3F)c2)nc1` (stereo not shown) [Example 91, 1-(2,4-difluoro-phenyl)-5-[3-(5-hydroxymethyl-pyridin-2-yl)-phenyl]-3-pentafluoroethyl-4,5-dihydro-1H-pyrazole] showed an Emax of 44 fold and an EC50 of 1.46 µM.
With `CS(=O)(=O)c1ccc(-c2cccc(C3CC(C(F)(F)C(F)(F)F)=NN3c3ccc(F)cc3F)c2)cn1` (stereo not shown) [Example 92, 1-(2,4-difluoro-phenyl)-5-[3-(6-methanesulfonyl-pyridin-3-yl)-phenyl]-3-pentafluoroethyl-4,5-dihydro-1H-pyrazole], the Emax is reported as 81 fold and the EC50 was 0.344 µM.
On to `Fc1ccc(N2N=C(C(F)(F)C(F)(F)F)CC2c2cccc(-c3ccccc3)c2)c(F)c1` (stereo not shown) [Example 94, 5-biphenyl-3-yl-1-(2,4-difluoro-phenyl)-3-pentafluoroethyl-4,5-dihydro-1H-pyrazole], for which the Emax was determined as 27 fold and the response was half-maximal at 19 µM (EC50).
`CS(=O)(=O)N1CCN(c2cccc(C3CC(C(F)(F)C(F)(F)F)=NN3c3ccc(F)cc3F)c2)CC1` (stereo not shown) [Example 96, 1-(2,4-difluoro-phenyl)-5-[3-(4-methanesulfonyl-piperazin-1-yl)-phenyl]-3-pentafluoroethyl-4,5-dihydro-1H-pyrazole] had an Emax of 67 fold and a concentration for a half-maximal effect (EC50) of 3.36 µM.
